Experimental data as given in patent publication US7294501B2, “Geldanamycin-producing strains, uses thereof and methods of producing same” (priority 2003, dated 2007).

System: acidiscabies and caviscabies
Test: Geldanamycin activity against other common scab causing species
Format: cell-based
Details: data not shown

COC1=C2C[C@@H](C)C[C@H](OC)[C@H](O)[C@@H](C)/C=C(\C)[C@H](OC(N)=O)[C@@H](OC)/C=C\C=C(/C)C(=O)NC(=CC1=O)C2=O [Geldanamycin]
activity against other common scab causing bacterial species: active
